According to US20110165173A1, “THERAPEUTIC AGENT AND DETECTION REAGENT FOR ARTERIOSCLEROTIC DISEASE WHICH TARGETS FOR SALUSIN” (PROTEINEXPRESS CO., LTD., priority 2007, published 2011):

Test system: scavenger receptor class A (SR-A) activity
Assay: Scavenger receptor class A (SR-A) activity: [125I]AcLDL association and degradation assays
Type: cell-based, human
Conditions: 0.6 nM; 5 to 10 μg/mL [125I]AcLDL, 18 hours
From the text: A scavenger receptor is a lipoprotein receptor expressed on macrophages. It recognizes modified LDL such as oxidized LDL or AcLDL, leading to endocytosis. A ligand of such receptor that has been incorporated into a cell is degraded in the lysosome. Such scavenger receptor plays a very important role on formation of foam cells from macrophages. Known examples of a scavenger receptor include a scavenger receptor class A (SR-A), CD36, lectin-like oxidized LDL receptor-1 (LOX-1), and CD68 [Greaves D R et al., J Lipid Res. 2005; 46: 11-20.]. Oxidized LDL can bind to the four types of the above scavenger receptors. However, the only scavenger receptor to which AcLDL binds is SR-A. In this experiment, AcLDL, which is a representative example of modified LDL, was used as a ligand and the activity of SR-A serving an exclusive scavenger receptor capable of recognizing AcLDL was assayed (FIG. 9).
Peripheral blood human monocytes (4×10^6cells/6 cm dish) were cultured for 7 days in an RPMI-1640 medium (2 mL) containing 10% human serum so as to differentiate into macrophages. At such time, 0.6 nM salusin-α or salusin-β was added during culture to examine effects of salusin-α and salusin-β on the endocytosis activity (SR-A activity) of [^125I]AcLDL. On Day 7, the medium was changed. An adequate amount of medium was added to [^125I]AcLDL (5 to 10 μg/mL) and 0.6 nM salusin-α or salusin-β so as to result in a total amount of 2 mL. The cells were further cultured for 18 hours.
The cells were washed once with PBS containing 3% BSA and then washed twice with PBS. 0.1 N NaOH (1 mL) was added thereto and the resultant was allowed to stand at room temperature for 30 minutes. The cells were recovered into a polystyrene tube (12×75 mm, Fisher Scientific Company), further washed with 0.1 N NaOH (1 mL), and recovered again. The total amount of the cell extraction solution was assayed using a y counter. The protein concentration of a portion thereof was determined by the BCA method (Pierce). The cell association (μg/mg cell protein) of [^125I]AcLDL was calculated by dividing the radioactivity (cpm) of the cell extraction solution by the specific activity (cpm/μg) of [^125I]AcLDL and the cell protein amount (mg) per dish [Miyazaki A et al., J Biol Chem. 1994; 269: 5264-5269].
[^125I]AcLDL incorporated by macrophages via scavenger receptors are degraded in the lysosome. […]
A portion (750 μL) was collected from each culture supernatant into a polystyrene tube (12×75 mm, Fisher Scientific Company). […] In addition, the peptide from [^125I]AcLDL that had been processed by cells was exclusively detected in the trichloroacetic acid soluble fraction. […]

Row | Substance | [125I]AcLDL association assay vs control cells | [125I]AcLDL degradation assay vs control cells
1 | salusin-α: peptide (SEQ ID NO: 1) comprising 28 amino acid residues, generated by processing from preprosalusin (SGALPPAPAAPRPALRAQRAGPAGPGAK; listed as Homo sapiens) | no significant changes | no significant changes
2 | salusin-β: peptide (SEQ ID NO: 3) comprising 20 amino acid residues, generated by processing from preprosalusin (AIFIFIRWLLKLGHHGRAPP; listed as Homo sapiens) [reference compound] | no significant changes | no significant changes
